Measurements published in patent publication US9776967B2, “Carboxamide derivatives as pesticidal compounds” (priority 2013, dated 2017).
Where two headings read alike, the source gives them in different places.

Tests used:
[1] = test system: Haemonchus contortus; assay: In vitro assay with Haemonchus contortus (HAEMCO), larval mortality; details: 120 h, read-out: activity (larval mortality)
Method: In Vitro Assay with Haemonchus contortus (HAEMCO)
(§1) Solvent: Dimethyl Sulfoxide
(§2) To produce a suitable preparation of active compound, 10 mg of active compound are dissolved in 0.5 ml solvent, and the concentrate is diluted with “Ringer's solution” to the desired concentration.
Approximately 40 larvae of the red stomach worm (Haemonchus contortus) are transferred into a test tube containing compound solution.
After 5 days percentage of larval mortality are recorded. 100% efficacy means all larvae are killed, 0% efficacy means no larvae are killed.

[2] = test system: Meloidogyne incognita; assay: Meloidogyne incognita (MELGIN) assay, gall formation on salad seedlings; assay type: in vivo; details: 336 h, after 14 days, read-out: nematicidal activity (percentage of gall formation; 100% = no galls)
Method: Meloidogyne incognita (MELGIN) Assay
Solvent: 125.0 parts by weight of acetone
To produce a suitable preparation of active compound, 1 part by weight of active compound is mixed with the stated amount of solvent, and the concentrate is diluted with water to the desired concentration.
Vessels are filled with sand, a solution of the active ingredient, a suspension containing eggs and larvae of the southern root-knot nematode (Meloidogyne incognita) and salad seeds. The salad seeds germinate and the seedlings grow. Galls develop in the roots.
After 14 days the nematicidal activity is determined on the basis of the percentage of gall formation. 100% means no galls were found and 0% means the number of galls found on the roots of the treated plants was equal to that in untreated control plants.

[3] = test system: Cooperia curticei; assay: In vitro assay with Cooperia curticei (COOPCU), larval mortality; details: 120 h, read-out: activity (larval mortality)
Method: In Vitro Assay with Cooperia curticei (COOPCU)
as §1, §2
Approximately 40 nematode larvae (Cooperia curticei) are transferred into a test tube containing the compound solution.
After 5 days percentage of larval mortality is recorded. 100% efficacy means all larvae are killed; 0% efficacy means no larvae are killed.

[4] = test system: Nippostrongylus brasiliensis; assay: In vitro assay with Nippostrongylus brasiliensis (NIPOBR), acetylcholine esterase readout; details: adult worms, read-out: activity (reduction of AChE compared to negative control); for inhibition at 1 ppm: 1 ppm (1 μg/ml); for inhibition at 10 ppm: 10 ppm (10 μg/ml)
Method: In Vitro Assay with Nippostrongylus brasiliensis (NIPOBR)
Adult Nippostrongylus brasiliensis were washed with saline buffer containing 100 U/ml penicillin, 0.1 mg/ml streptomycin and 2.5 μg/ml amphotericin B. Test compounds were dissolved in DMSO and worms were incubated in medium in a final concentration of 10 μg/ml (10 ppm) respectively 1 μg/ml (1 ppm). An aliquot of the medium was used to determine the acetylcholine esterase activity in comparison to a negative control. The principle of measuring acetylcholine esterase as readout for anthelmintic activity was described in Rapson et al (1986) and Rapson et al (1987).

[5] = LogP by HPLC on reversed phase columns (EEC directive 79/831 Annex V.A8); assay type: physicochemical
Method: Calibration was done with straight-chain alkan2-ones (with 3 to 16 carbon atoms) with known Log P values (measurement of Log P values using retention times with linear interpolation between successive alkanones). Lambda-max-values were determined using UV-spectra from 200 nm to 400 nm and the peak values of the chromatographic signals.

`O=C(NCC(F)(F)c1ncc(-c2ccc(Cl)cc2Cl)cc1Cl)c1ccccc1C(F)(F)F` [Example 15] showed a mortality at 20 ppm [1] of 100%, a pest or weed control at 20 ppm [2] of 90% and a mortality at 20 ppm [3] of 100%. It also gave an inhibition at 1 ppm [4] of at least 60%, an inhibition at 10 ppm [4] of at least 60% and a chromatographic logP ([5]; logP (HCOOH) [a]) of 4.57.
With `COc1ccc(-c2cnc(C(F)(F)CNC(=O)c3ccccc3C(F)(F)F)c(Cl)c2)cc1` [Example 7] the mortality at 20 ppm ([1]; 20 ppm, after 5 days) was 100%, the pest or weed control at 20 ppm [2] was 100% and the mortality at 20 ppm [3] was 100%. The inhibition at 1 ppm [4] was at least 60%, the inhibition at 10 ppm [4] was at least 60% and the chromatographic logP ([5]; LC-UV, acidic range, 0.1% formic acid in water and acetonitrile, read-out: logP (HCOOH) [a]) was 3.68.
For `O=C(NCC(F)(F)c1ncc(-c2ccc(F)c(F)c2)cc1Cl)c1ccccc1C(F)(F)F` [Example 14], the mortality at 20 ppm [1] was 100%, the pest or weed control at 20 ppm [2] was 100% and the mortality at 20 ppm [3] was 100%. It also gave an inhibition at 1 ppm [4] of at least 60%, an inhibition at 10 ppm [4] of at least 60% and a chromatographic logP ([5]; logP (HCOOH) [a]) of 3.84.
For `O=C(NCC(F)(F)c1ncc(-c2cc(Cl)cc(Cl)c2)cc1Cl)c1ccccc1C(F)(F)F` [Example 11], the mortality at 20 ppm [1] was 100%, the pest or weed control at 20 ppm [2] was 90% and the mortality at 20 ppm [3] was 100%. It also gave an inhibition at 1 ppm [4] of at least 60%, an inhibition at 10 ppm [4] of at least 60% and a chromatographic logP ([5]; logP (HCOOH) [a]) of 4.64.
